Test results as given in US11006626B2, “Compounds for protection of cells” (Sulfateq B.V., priority 2012, dated 2021).

System: apherese blood platelets
Experiment: Apheresis platelets stored with Sul 136, hematology analysis (platelet count, MPV)
Format: cell-based
Settings: stored at 4° C. with Sul 136
From the text: Platelets were obtained via standard plateletpheresis procedures either on Haemonetics (donor 2611811 and donor 2611855) or on Cobe instruments (donor 2611770). According the protocol all units would be obtained with plateletpheresis procedure with the Cobe instrument, but from the three donations two were not passing the blood bank quality control criteria. Nevertheless, all platelet donations have a similar concentration and a similar platelet quality. In none of the platelet concentrates clots were found. The freshly harvested platelets are weighed on a balance and for sampling of platelet concentrate a small PVC bag was seal-docked to the main platelet concentrate bag. Standard homogenization of platelet concentrate has to be done with a roller before sampling. 300 μM suspension of Sul 136 is added with a procedure, which keeps the bag content sterile and the Sul 136 is kept in suspension by frequent whirling and stored at 37° C. before it is added to the freshly harvested platelets. The Sul 136 suspension is added to three platelet bags directly from the bag. After addition, the content of the platelet bag is gently mixed. After 2 hours the first sample is drawn with a seal-docked sample bag. The sample bag is disconnected by welding and from this sample bag the samples are taken for hematology analyzing, aggregometer tests and the flow-cytometry tests. Swirling in the bag is reported by experience of the laboratory worker in the standard format. Platelets without Sul 136 put on a flatbed shaker and stored at room temperature were used as control. Another control is stored at 4° C. Platelet samples in which Sul 136 is added, are stored without shaking in a refrigerator at 4° C.

Cc1c(C)c2c(c(C)c1O)CCC(C)(C(=O)N1CCN(CC(=O)O)CC1)O2 (racemic) [SUL - 136, 2-(4-(6-hydroxy-2,5,7,8-tetramethylchroman-2-carbonyl)piperazin-1-yl)acetic acid] was tested, and the MPV (Donor 2, Day 1) was 10.1 fL, the Platelets/μl (Donor 2, Day 1) was 1,004,000 Platelets/μl and the MPV (Donor 2, Day 2) was 7.6 fL. For the same compound, the Platelets/μl (Donor 2, Day 2) was 1,272,000 Platelets/μl, the MPV (Donor 2, Day 3) was 7.8 fL and the Platelets/μl (Donor 2, Day 3) was 1,220,000 Platelets/μl. For the same compound, the MPV (Donor 2, Day 5) was 8.0 fL, the Platelets/μl (Donor 2, Day 5) was 1,252,000 Platelets/μl and the MPV (Donor 2, Day 8) was 8.0 fL. The Platelets/μl (Donor 2, Day 8) was 1,168,000 Platelets/μl, the MPV (Donor 2, Day 10) was 8.1 fL and the Platelets/μl (Donor 2, Day 10) was 1,104,000 Platelets/μl. For the same compound, the MPV (Donor 2, Day 12) was 8.6 fL, the Platelets/μl (Donor 2, Day 12) was 1,032,000 Platelets/μl and the MPV (Donor 2, Day 19) was 8.8 fL. For the same compound, the Platelets/μl (Donor 2, Day 19) was 860,000 Platelets/μl, the MPV (Donor 3, Day 1) was 10.3 fL and the Platelets/μl (Donor 3, Day 1) was 980,000 Platelets/μl. For the same compound, the MPV (Donor 3, Day 2) was 7.7 fL, the Platelets/μl (Donor 3, Day 2) was 1,188,000 Platelets/μl and the MPV (Donor 3, Day 3) was 7.7 fL. The Platelets/μl (Donor 3, Day 3) was 1,072,000 Platelets/μl, the MPV (Donor 3, Day 5) was 8.0 fL and the Platelets/μl (Donor 3, Day 5) was 1,068,000 Platelets/μl. For the same compound, the MPV (Donor 3, Day 8) was 8.3 fL, the Platelets/μl (Donor 3, Day 8) was 992,000 Platelets/μl and the MPV (Donor 3, Day 10) was 8.3 fL. The Platelets/μl (Donor 3, Day 10) was 892,000 Platelets/μl, the MPV (Donor 3, Day 12) was 9.0 fL and the Platelets/μl (Donor 3, Day 12) was 912,000 Platelets/μl. For the same compound, the MPV (Donor 3, Day 19) was 9.5 fL, the Platelets/μl (Donor 3, Day 19) was 692,000 Platelets/μl and the MPV (donor 1, Day 1) was 10.6 fL. The Platelets/μl (donor 1, Day 1) was 1,000,000 Platelets/μl, the MPV (donor 1, Day 2) was 9.5 fL and the Platelets/μl (donor 1, Day 2) was 1,192,000 Platelets/μl. The MPV (donor 1, Day 3) was 9.2 fL, the Platelets/μl (donor 1, Day 3) was 1,240,000 Platelets/μl and the MPV (donor 1, Day 5) was 9.1 fL. The Platelets/μl (donor 1, Day 5) was 1,232,000 Platelets/μl, the MPV (donor 1, Day 8) was 9.3 fL and the Platelets/μl (donor 1, Day 8) was 1,352,000 Platelets/μl. The MPV (donor 1, Day 10) was 9.6 fL, the Platelets/μl (donor 1, Day 10) was 1,228,000 Platelets/μl and the MPV (donor 1, Day 12) was 9.8 fL. For the same compound, the Platelets/μl (donor 1, Day 12) was 1,204,000 Platelets/μl, the MPV (donor 1, Day 19) was 8.8 fL and the Platelets/μl (donor 1, Day 19) was 1,068,000 Platelets/μl.
